# According to ChEMBL document CHEMBL1201862, “PubChem BioAssay data set” (2004):
#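 Test compounds were applied to cells in 96-well plates for 48 hours at 5 doses. GI50 is the concentration that inhibits growth by half.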 Active and inactive are the calls of the source. Cut-off read from the data, not from the text of the source: active = GI50 up to about 1.1 µM and inactive = higher.
# Assays:
# Assay in all cases: inhibition of tumour cell growth, NCI panel, 48 h
# NCI-H522 = test system: NCI-H522
# SR = test system: SR
# SK-MEL-28 = test system: SK-MEL-28
# OVCAR-4 = test system: OVCAR-4
# LXFL 529 = test system: LXFL 529
# OVCAR-8 = test system: OVCAR-8
# XF498 = test system: XF498
# IGROV-1 = test system: IGROV-1
# MOLT-4 = test system: MOLT-4
# EKVX = test system: EKVX
# K562 = test system: K562
# LOX IMVI = test system: LOX IMVI
# TK-10 = test system: TK-10
# HOP-92 = test system: HOP-92
# A498 = test system: A498
# SN12C = test system: SN12C
# KM-20L2 = test system: KM-20L2
# 786-0 = test system: 786-0
# HL-60 = test system: HL-60
# NCI-H226 = test system: NCI-H226
# CAKI-1 = test system: CAKI-1
# M14 = test system: M14
# HCC 2998 = test system: HCC 2998
# SK-OV-3 = test system: SK-OV-3
# SNB-75 = test system: SNB-75
# HOP-18 = test system: HOP-18
# UACC-257 = test system: UACC-257
# SF-268 = test system: SF-268
# RPMI-8226 = test system: RPMI-8226
# DLD-1 = test system: DLD-1
# NCI-H460 = test system: NCI-H460
# M19-MEL = test system: M19-MEL
# DMS-273 = test system: DMS-273
# SNB-78 = test system: SNB-78
# SF-295 = test system: SF-295
# Malme-3M = test system: Malme-3M
# RXF 631 = test system: RXF 631
# DMS-114 = test system: DMS-114
# OVCAR-5 = test system: OVCAR-5
# SK-MEL-5 = test system: SK-MEL-5
# ACHN = test system: ACHN
# SW-620 = test system: SW-620
# COLO 205 = test system: COLO 205
# CCRF-CEM = test system: CCRF-CEM
# HOP-62 = test system: HOP-62
# KM12 = test system: KM12
# UACC-62 = test system: UACC-62
# RXF 393 = test system: RXF 393
# SK-MEL-2 = test system: SK-MEL-2
# UO-31 = test system: UO-31
# OVCAR-3 = test system: OVCAR-3
# HCT-116 = test system: HCT-116
# U-251 = test system: U-251
# HT-29 = test system: HT-29
# A549 = test system: A549
# SNB-19 = test system: SNB-19
# SF-539 = test system: SF-539
# NCI-H23 = test system: NCI-H23
# MCF7 = test system: MCF7
# T47D = test system: T47D
# MDA-MB-231 = test system: MDA-MB-231
# DU-145 = test system: DU-145
# MDA-MB-435 = test system: MDA-MB-435
# BT-549 = test system: BT-549
# Hs-578T = test system: Hs-578T
# HCT-15 = test system: HCT-15
# NCI/ADR-RES = test system: NCI/ADR-RES
# PC-3 = test system: PC-3
# MDA-N = test system: MDA-N
structure (smiles),measurement,setting,value
COC(=O)C1CCC2(CC1)NC(=O)NC2=O (stereo unspecified),GI50,NCI-H522,> 100 µM (inactive)
same,GI50,SR,> 100 µM (inactive)
same,GI50,SK-MEL-28,> 100 µM (inactive)
same,GI50,OVCAR-4,> 100 µM (inactive)
same,GI50,LXFL 529,> 100 µM (inactive)
same,GI50,OVCAR-8,> 100 µM (inactive)
same,GI50,XF498,> 100 µM (inactive)
same,GI50,IGROV-1,> 100 µM (inactive)
same,GI50,MOLT-4,> 100 µM (inactive)
same,GI50,EKVX,> 100 µM (inactive)
same,GI50,K562,> 100 µM (inactive)
same,GI50,LOX IMVI,> 100 µM (inactive)
same,GI50,TK-10,> 100 µM (inactive)
same,GI50,HOP-92,> 100 µM (inactive)
same,GI50,A498,> 100 µM (inactive)
same,GI50,SN12C,> 100 µM (inactive)
same,GI50,KM-20L2,> 100 µM (inactive)
same,GI50,786-0,> 100 µM (inactive)
same,GI50,HL-60,> 100 µM (inactive)
same,GI50,NCI-H226,> 100 µM (inactive)
same,GI50,CAKI-1,> 100 µM (inactive)
same,GI50,M14,> 100 µM (inactive)
same,GI50,HCC 2998,> 100 µM (inactive)
same,GI50,SK-OV-3,> 100 µM (inactive)
same,GI50,SNB-75,> 100 µM (inactive)
same,GI50,HOP-18,> 100 µM (inactive)
same,GI50,UACC-257,> 100 µM (inactive)
same,GI50,SF-268,> 100 µM (inactive)
same,GI50,RPMI-8226,> 100 µM (inactive)
same,GI50,DLD-1,> 100 µM (inactive)
same,GI50,NCI-H460,> 100 µM (inactive)
same,GI50,M19-MEL,> 100 µM (inactive)
same,GI50,DMS-273,> 100 µM (inactive)
same,GI50,SNB-78,> 100 µM (inactive)
same,GI50,SF-295,> 100 µM (inactive)
same,GI50,Malme-3M,> 100 µM (inactive)
same,GI50,RXF 631,> 100 µM (inactive)
same,GI50,DMS-114,> 100 µM (inactive)
same,GI50,OVCAR-5,> 100 µM (inactive)
same,GI50,SK-MEL-5,> 100 µM (inactive)
same,GI50,ACHN,> 100 µM (inactive)
same,GI50,SW-620,> 100 µM (inactive)
same,GI50,COLO 205,> 100 µM (inactive)
same,GI50,CCRF-CEM,> 100 µM (inactive)
same,GI50,HOP-62,> 100 µM (inactive)
same,GI50,KM12,> 100 µM (inactive)
same,GI50,UACC-62,> 100 µM (inactive)
same,GI50,RXF 393,> 100 µM (inactive)
same,GI50,SK-MEL-2,> 100 µM (inactive)
same,GI50,UO-31,> 100 µM (inactive)
same,GI50,OVCAR-3,> 100 µM (inactive)
same,GI50,HCT-116,> 100 µM (inactive)
same,GI50,U-251,> 100 µM (inactive)
same,GI50,HT-29,> 100 µM (inactive)
same,GI50,A549,> 100 µM (inactive)
same,GI50,SNB-19,> 100 µM (inactive)
same,GI50,SF-539,> 100 µM (inactive)
same,GI50,NCI-H23,> 100 µM (inactive)
CCCCCCCCCCNC1CC(OC2CC(O)(C(O)CO)Cc3c(O)c4c(c(O)c32)C(=O)c2c(OC)cccc2C4=O)OC(C)C1O (stereo unspecified),GI50,NCI-H522,1.76 µM (inactive)
same,GI50,SR,0.408 µM (active)
same,GI50,SK-MEL-28,1.76 µM (inactive)
same,GI50,OVCAR-4,1.53 µM (inactive)
same,GI50,LXFL 529,0.731 µM (active)
same,GI50,OVCAR-8,1.55 µM (inactive)
same,GI50,XF498,1.91 µM (inactive)
same,GI50,IGROV-1,1.74 µM (inactive)
same,GI50,MOLT-4,0.189 µM (active)
same,GI50,MCF7,1.01 µM (active)
same,GI50,EKVX,1.78 µM (inactive)
same,GI50,K562,0.324 µM (active)
same,GI50,T47D,1.86 µM (inactive)
same,GI50,LOX IMVI,0.641 µM (active)
same,GI50,TK-10,4.44 µM (inactive)
same,GI50,MDA-MB-231,1.36 µM (inactive)
same,GI50,HOP-92,1.47 µM (inactive)
same,GI50,A498,1.5 µM (inactive)
same,GI50,SN12C,1.65 µM (inactive)
same,GI50,DU-145,1.79 µM (inactive)
same,GI50,MDA-MB-435,1.77 µM (inactive)
same,GI50,KM-20L2,1.69 µM (inactive)
same,GI50,BT-549,1.7 µM (inactive)
same,GI50,786-0,1.84 µM (inactive)
same,GI50,HL-60,0.434 µM (active)
same,GI50,NCI-H226,1.79 µM (inactive)
same,GI50,CAKI-1,1.68 µM (inactive)
same,GI50,Hs-578T,1.67 µM (inactive)
same,GI50,M14,1.69 µM (inactive)
same,GI50,HCT-15,1.56 µM
same,GI50,HCC 2998,1.33 µM (inactive)
same,GI50,SK-OV-3,1.6 µM (inactive)
same,GI50,NCI/ADR-RES,1.88 µM (inactive)
same,GI50,SNB-75,1.62 µM (inactive)
same,GI50,HOP-18,1.87 µM (inactive)
same,GI50,UACC-257,1.72 µM (inactive)
same,GI50,SF-268,1.92 µM (inactive)
same,GI50,RPMI-8226,0.839 µM (active)
same,GI50,PC-3,1.47 µM (inactive)
same,GI50,DLD-1,1.13 µM (inactive)
same,GI50,NCI-H460,0.601 µM (active)
same,GI50,M19-MEL,1.65 µM (inactive)
same,GI50,DMS-273,1.79 µM (inactive)
same,GI50,MDA-N,1.5 µM (inactive)
same,GI50,SNB-78,1.84 µM (inactive)
same,GI50,SF-295,1.9 µM (inactive)
same,GI50,Malme-3M,1.94 µM (inactive)
same,GI50,RXF 631,1.53 µM (inactive)
same,GI50,DMS-114,1.46 µM (inactive)
same,GI50,OVCAR-5,1.8 µM (inactive)
same,GI50,SK-MEL-5,1.74 µM (inactive)
same,GI50,ACHN,1.73 µM (inactive)
same,GI50,SW-620,0.791 µM (active)
same,GI50,COLO 205,1.66 µM (inactive)
same,GI50,CCRF-CEM,0.388 µM (active)
same,GI50,HOP-62,1.66 µM (inactive)
same,GI50,KM12,1.5 µM (inactive)
same,GI50,UACC-62,1.79 µM (inactive)
same,GI50,RXF 393,1.26 µM (inactive)
same,GI50,SK-MEL-2,1.4 µM (inactive)
same,GI50,UO-31,1.77 µM (inactive)
same,GI50,OVCAR-3,1.69 µM (inactive)
same,GI50,HCT-116,0.692 µM (active)
same,GI50,U-251,0.986 µM (active)
same,GI50,HT-29,1.33 µM (inactive)
same,GI50,A549,1.58 µM (inactive)
same,GI50,SNB-19,1.88 µM (inactive)
same,GI50,SF-539,1.77 µM (inactive)
same,GI50,NCI-H23,2.63 µM (inactive)
COc1ccccc1NC(=O)C1=C(C)NC(C)=C(C(=O)Nc2ccccc2OC)C1c1ccc(C2C(C(=O)Nc3ccccc3OC)=C(C)NC(C)=C2C(=O)Nc2ccccc2OC)cc1,GI50,NCI-H522,1.8 µM (inactive)
same,GI50,SR,1.53 µM (inactive)
same,GI50,SK-MEL-28,2.44 µM (inactive)
same,GI50,OVCAR-4,3.94 µM (inactive)
same,GI50,LXFL 529,1.89 µM (inactive)
same,GI50,OVCAR-8,2.53 µM (inactive)
same,GI50,XF498,2.21 µM (inactive)
same,GI50,IGROV-1,1.99 µM (inactive)
same,GI50,MOLT-4,1.19 µM (inactive)
same,GI50,EKVX,2.54 µM (inactive)
same,GI50,K562,2.18 µM (inactive)
same,GI50,LOX IMVI,1.29 µM (inactive)
same,GI50,TK-10,11.5 µM (inactive)
same,GI50,HOP-92,3.29 µM (inactive)
same,GI50,A498,6.12 µM (inactive)
same,GI50,SN12C,1.79 µM (inactive)
same,GI50,KM-20L2,1.71 µM (inactive)
same,GI50,786-0,1.78 µM (inactive)
same,GI50,HL-60,1.46 µM (inactive)
same,GI50,NCI-H226,3.52 µM (inactive)
same,GI50,CAKI-1,3.13 µM (inactive)
same,GI50,M14,1.61 µM (inactive)
same,GI50,HCT-15,2.72 µM
same,GI50,HCC 2998,1.95 µM (inactive)
same,GI50,SK-OV-3,13 µM (inactive)
same,GI50,SNB-75,10.2 µM (inactive)
same,GI50,HOP-18,18 µM (inactive)
same,GI50,UACC-257,2.33 µM (inactive)
same,GI50,SF-268,2.82 µM (inactive)
same,GI50,RPMI-8226,2.43 µM (inactive)
same,GI50,DLD-1,1.22 µM (inactive)
same,GI50,NCI-H460,2.78 µM (inactive)
same,GI50,M19-MEL,3.15 µM (inactive)
same,GI50,DMS-273,2.32 µM (inactive)
same,GI50,SNB-78,4.16 µM (inactive)
same,GI50,SF-295,1.53 µM (inactive)
same,GI50,Malme-3M,2.51 µM (inactive)
same,GI50,RXF 631,3.46 µM (inactive)
same,GI50,DMS-114,3.52 µM (inactive)
same,GI50,OVCAR-5,3.22 µM (inactive)
same,GI50,SK-MEL-5,2.84 µM (inactive)
same,GI50,ACHN,2.88 µM (inactive)
same,GI50,SW-620,1.86 µM (inactive)
same,GI50,COLO 205,3.33 µM (inactive)
same,GI50,CCRF-CEM,0.813 µM (active)
same,GI50,HOP-62,6.35 µM (inactive)
same,GI50,KM12,1.64 µM (inactive)
same,GI50,UACC-62,1.68 µM (inactive)
same,GI50,RXF 393,2.38 µM (inactive)
same,GI50,SK-MEL-2,2.08 µM (inactive)
same,GI50,UO-31,4.14 µM (inactive)
same,GI50,OVCAR-3,2.29 µM (inactive)
same,GI50,HCT-116,1.3 µM (inactive)
same,GI50,U-251,2.52 µM (inactive)
same,GI50,HT-29,1.71 µM (inactive)
same,GI50,A549,> 27.8 µM (inactive)
same,GI50,SNB-19,3.89 µM (inactive)
same,GI50,SF-539,1.68 µM (inactive)
same,GI50,NCI-H23,2.39 µM (inactive)
